Counter-ions that a name gives are not always drawn.
Experiments:
human renal tumors = settings: cited from earlier work
[1] = tested on: advanced ovarian adenocarcinoma; settings: concurrent use with cyclophosphamide, methotrexate and 5-fluorouracil; cited from earlier work
[2] = tested on: N.C.I. animal anti-tumor screening systems; settings: in vivo; cited from earlier work
human disease = settings: in vivo; cited from earlier work
human pulmonary tumors = settings: cited from earlier work
ovarian cancer = settings: clinical; cited from earlier work
A-549 lung carcinoma = test: Inhibition of colony formation by human tumor cell line A-549 (lung carcinoma), long-term exposure; assay type: cell-based; settings: Homo sapiens, A549, 216 h, 9 days, read-out: Percent survival (number of colonies in test dishes to colonies in control dishes times 100)
Description: (§1) Cytotoxic activity of O-HMM against in vitro human tumor cells was measured as inhibition of colony formation and the results expressed as a ratio of the number of colonies in test dishes to number of control dishes, times 100 (Table 4).
(§2) Inhibition of colony formation by human tumor
(§3) ^a Percent survival as measured by the number of colonies in test

A-498 renal carcinoma = test: Inhibition of colony formation by human tumor cell line A-498 (renal carcinoma), long-term exposure; assay type: cell-based; settings: Homo sapiens, A498, 216 h, 9 days, read-out: Percent survival (number of colonies in test dishes to colonies in control dishes times 100)
Description: as §1, §2, §3

A-101D melanoma = test: Inhibition of colony formation by human tumor cell line A-101D (melanoma), long-term exposure; assay type: cell-based; settings: Homo sapiens, A101D, 216 h, 9 days, read-out: Percent survival (number of colonies in test dishes to colonies in control dishes times 100)
Description: as §1, §2, §3

A-204 rhabdomysarcoma = test: Inhibition of colony formation by human tumor cell line A-204 (rhabdomysarcoma), long-term exposure; assay type: cell-based; settings: Homo sapiens, A204, 216 h, 9 days, read-out: Percent survival (number of colonies in test dishes to colonies in control dishes times 100)
Description: as §1, §2, §3

[3] = vs HMM; background statement; cited from earlier work
[4] = 150 ug/ml, solubility may be limiting
[5] = 175 ug/ml, solubility may be limiting
[6] = 225 ug/ml, solubility may be limiting

For CN(C)c1nc(N(C)C)nc(N(C)C)n1 [HMM, hexamethylmelamine], the “activity against human renal tumors in mice” value (human renal tumors) is given as “active”, the “effectiveness against advanced ovarian adenocarcinoma” value [1] is given as “effective against advanced ovarian adenocarcinoma” and the “activity in most N.C.I. animal anti-tumor screening systems” value [2] is given as “no demonstrated activity”. The “activity against human disease” value (human disease) was “demonstrated activity against human disease”, the “activity against human pulmonary tumors in mice” value (human pulmonary tumors) was “active” and the “activity against ovarian cancer” value (ovarian cancer) was “significant activity against ovarian cancer”.

In the case of CN(C)c1nc(N(C)C)nc(N(C)C)n1 [HMM.HCl, reference compound], the viability at 10 µg/mL (A-549 lung carcinoma; 10 ug/ml) is reported as 95 ± 5%, the viability at 20 µg/mL (A-549 lung carcinoma; 20 ug/ml) is reported as 93 ± 4% and the viability at 25 µg/mL (A-549 lung carcinoma; 25 ug/ml) is reported as 91 ± 12%. For the same compound, the viability at 50 µg/mL (A-549 lung carcinoma; 50 ug/ml) was 95 ± 8%, the viability at 75 µg/mL (A-549 lung carcinoma; 75 ug/ml) was 87 ± 11% and the viability at 100 µg/mL (A-549 lung carcinoma; 100 ug/ml) was 86 ± 9%. The viability at 150 µg/mL (A-549 lung carcinoma; [4]) was 74 ± 17%, the viability at 175 µg/mL (A-549 lung carcinoma; [5]) was 59 ± 23% and the viability at 200 µg/mL (A-549 lung carcinoma; 200 ug/ml) was 61 ± 19%. For the same compound, the viability at 20 µg/mL (A-498 renal carcinoma; 20 ug/ml) was 97 ± 6%, the viability at 25 µg/mL (A-498 renal carcinoma; 25 ug/ml) was 90 ± 12% and the viability at 50 µg/mL (A-498 renal carcinoma; 50 ug/ml) was 75 ± 8%. It also gave a viability at 75 µg/mL (A-498 renal carcinoma; 75 ug/ml) of 61 ± 12%, a viability at 100 µg/mL (A-498 renal carcinoma; 100 ug/ml) of 50 ± 12% and a viability at 150 µg/mL (A-498 renal carcinoma; [4]) of 42 ± 18%. For the same compound, the viability at 175 µg/mL (A-498 renal carcinoma; [5]) was 43 ± 25%, the viability at 200 µg/mL (A-498 renal carcinoma; 200 ug/ml) was 42 ± 19% and the viability at 225 µg/mL (A-498 renal carcinoma; [6]) was 41 ± 8%. For the same compound, the viability at 20 µg/mL (A-101D melanoma; 20 ug/ml) was 101 ± 4%, the viability at 25 µg/mL (A-101D melanoma; 25 ug/ml) was 98 ± 11% and the viability at 50 µg/mL (A-101D melanoma; 50 ug/ml) was 92 ± 13%. The viability at 75 µg/mL (A-101D melanoma; 75 ug/ml) was 73 ± 5%, the viability at 100 µg/mL (A-101D melanoma; 100 ug/ml) was 53 ± 11% and the viability at 150 µg/mL (A-101D melanoma; [4]) was 37 ± 8%. It also gave a viability at 175 µg/mL (A-101D melanoma; [5]) of 38 ± 9%, a viability at 200 µg/mL (A-101D melanoma; 200 ug/ml) of 33 ± 8% and a viability at 225 µg/mL (A-101D melanoma; [6]) of 29 ± 6%. For the same compound, the viability at 20 µg/mL (A-204 rhabdomysarcoma; 20 ug/ml) was 104 ± 12%, the viability at 25 µg/mL (A-204 rhabdomysarcoma; 25 ug/ml) was 85 ± 8% and the viability at 50 µg/mL (A-204 rhabdomysarcoma; 50 ug/ml) was 78 ± 15%. It also gave a viability at 75 µg/mL (A-204 rhabdomysarcoma; 75 ug/ml) of 62 ± 24%, a viability at 100 µg/mL (A-204 rhabdomysarcoma; 100 ug/ml) of 55 ± 27% and a viability at 150 µg/mL (A-204 rhabdomysarcoma; [4]) of 35 ± 29%. It also gave a viability at 175 µg/mL (A-204 rhabdomysarcoma; [5]) of 38 ± 26%, a viability at 200 µg/mL (A-204 rhabdomysarcoma; 200 ug/ml) of 38 ± 21% and a viability at 225 µg/mL (A-204 rhabdomysarcoma; [6]) of 40 ± 28%.

In the case of CNc1nc(N(C)C)nc(N(C)C)n1 [pentamethylmelamine], the “solubility compared with HMM” value [3] is given as “more soluble”.
